Converted amounts (≈) assume the structure as drawn.
What was measured:
[1] = tested on: Klebsiella aerogenes NCTC11228 - antibiotic-susceptible type strain
[2] = tested on: Enterococcus faecium vancomycin-susceptible clinical isolate
[3] = tested on: Haemophilus influenzae - β-lactamase positive clinical isolate
[4] = tested on: Staphylococcus haemolyticus - antibiotic susceptible clinical isolate
[5] = tested on: Enterococcus faecalis vancomycin-resistant (VanB) clinical isolate
[6] = tested on: Corynebacterium jeikeium - multi-drug resistant clinical isolate
[7] = tested on: Staphylococcus aureus ATCC 29213 - antibiotic-susceptible control strain; conditions: ATCC 29213
[8] = tested on: EMRSA15 Staphylococcus aureus (MRSA) - SSCmec type 4; conditions: EMRSA15 - SSCmec type 4
[9] = tested on: Enterococcus faecalis vancomycin-susceptible clinical isolate
[10] = tested on: Candida tropicalis ATCC750 - reference strain
[11] = tested on: Trichophyton interdigitale - G.R. Micro collection
[12] = tested on: Propionibacterium acnes- antibiotic-susceptible clinical isolate; assay: MIC microbroth dilution (CLSI); assay type: cell-based; conditions: P. acnes antibiotic-susceptible
Experimental: Supplemented Brucella broth (SBB) was used for the anaerobic strains with an inoculum of approximately 10^6 CFU/mL. SBB is a broth consisting of 1% peptone, 0.5% ‘Lab-lemco’, 1% glucose and 0.5% sodium chloride supplemented with 5 μg/L haemin and 1 μg/L vitamin K (both obtained from Sigma Aldrich Ltd.) Yeast and filamentous fungal MIC were performed in MOPS buffered RPMI 1640 medium (MOPS buffer obtained from Sigma Aldrich Ltd., RPMI 1640 obtained from Invitrogen Ltd, Paisley, Scotland). The yeast inocula were in the range 7.5×10^2-4×10^3 CFU/mL and the filamentous fungi approximately 8×10^3-1×10^5 CFU/mL.
MICs were determined as described in Example 2.

[13] = tested on: Escherichia coli - multi-drug resistant clinical isolate
[14] = tested on: Microsporum canis - G.R. Micro collection
[15] = tested on: Staphylococcus epidermidis methicillin-resistant clinical isolate
[16] = tested on: Cryptococcus neoformans - G.R. Micro collection
[17] = tested on: Staphylococcus saprophyticus - antibiotic susceptible clinical isolate
[18] = tested on: Listeria monocytogenes - antibiotic-susceptible clinical isolate
[19] = tested on: Methicillin resistant Staphylococcus aureus (MRSA) strain ATCC 33591; conditions: ATCC 33591
[20] = tested on: Streptococcus pneumoniae - penicillin-susceptible clinical isolate
[21] = tested on: Klebsiella aerogenes - multi-drug resistant clinical isolate
[22] = tested on: Streptococcus bovis - antibiotic-susceptible clinical isolate
[23] = tested on: Salmonella sp - multi-drug resistant clinical isolate; assay: MIC microbroth dilution (CLSI); assay type: cell-based
[24] = tested on: Pseudomonas aeruginosa ATCC27853 - antibiotic-susceptible type strain; conditions: ATCC27853
[25] = tested on: Streptococcus pyogenes - Macrolide (M-type) resistance clinical isolate
[26] = tested on: Escherichia coli ATCC32518 - β-lactamase positive type strain
[27] = tested on: Staphylococcus epidermidis antibiotic susceptible clinical isolate
[28] = tested on: Candida albicans ATCC24433 - reference strain
[29] = tested on: Enterococcus faecalis vancomycin-resistant (VanA) clinical isolate
[30] = tested on: EMRSA3 Staphylococcus aureus (MRSA) - SSCmec type 1; conditions: EMRSA3 - SSCmec type 1
[31] = tested on: Aspergillus niger - G.R. Micro collection
[32] = tested on: Salmonella sp - antibiotic-susceptible clinical isolate; assay: MIC microbroth dilution (CLSI); assay type: cell-based
[33] = tested on: Morganella morganii - multi-drug resistant clinical isolate
[34] = tested on: HT2001254 Staphylococcus aureus (MRSA) - PVL positive; conditions: HT2001254 S. aureus (MRSA) PVL positive
[35] = tested on: Enterococcus gallinarum vancomycin-resistant (VanC) clinical isolate
[36] = tested on: Group G Streptococcus - antibiotic-susceptible clinical isolate
[37] = tested on: Candida parapsilosis ATCC90018 - reference strain

CCCCCCNC(=O)[C@H](CCCNC(=N)N)NC(=O)[C@H](Cc1c(C(C)(C)C)[nH]c2c(C(C)(C)C)cc(C(C)(C)C)cc12)NC(=O)[C@@H](N)CCCNC(=N)N [Compound 8]
MIC [1]: 8 µg/mL (≈ 10.4 µM)
MIC [2]: 4 µg/mL (≈ 5.21 µM)
MIC [3]: 4 µg/mL (≈ 5.21 µM)
MIC [4]: 4 µg/mL (≈ 5.21 µM)
MIC [5]: 8 µg/mL (≈ 10.4 µM)
MIC [6]: 2 µg/mL (≈ 2.6 µM)
MIC [7]: 4 µg/mL (≈ 5.21 µM)
MIC [8]: 4 µg/mL (≈ 5.21 µM)
MIC [9]: 4 µg/mL (≈ 5.21 µM)
MIC [10]: 4 µg/mL (≈ 5.21 µM)
MIC [11]: 4 µg/mL (≈ 5.21 µM)
MIC [12]: 4 µg/mL (≈ 5.21 µM)
MIC [13]: 8 µg/mL (≈ 10.4 µM)
MIC [14]: 4 µg/mL (≈ 5.21 µM)
MIC [15]: 2 µg/mL (≈ 2.6 µM)
MIC [16]: 2 µg/mL (≈ 2.6 µM)
MIC [17]: 0.5 µg/mL (≈ 0.651 µM)
MIC [18]: 8 µg/mL (≈ 10.4 µM)
MRSA (MIC) [19]: 2 µg/mL
MIC [20]: 8 µg/mL (≈ 10.4 µM)
MIC [21]: 8 µg/mL (≈ 10.4 µM)
MIC [22]: 8 µg/mL (≈ 10.4 µM)
MIC [23]: 8 µg/mL (≈ 10.4 µM)
MIC [24]: 8 µg/mL (≈ 10.4 µM)
MIC [25]: 8 µg/mL (≈ 10.4 µM)
MIC [26]: 8 µg/mL (≈ 10.4 µM)
MIC [27]: 8 µg/mL (≈ 10.4 µM)
MIC [28]: 8 µg/mL (≈ 10.4 µM)
MIC [29]: 4 µg/mL (≈ 5.21 µM)
MIC [30]: 4 µg/mL (≈ 5.21 µM)
MIC [31]: 4 µg/mL (≈ 5.21 µM)
MIC [32]: 8 µg/mL (≈ 10.4 µM)
MIC [33]: 8 µg/mL (≈ 10.4 µM)
MIC [34]: 4 µg/mL (≈ 5.21 µM)
MIC [35]: 4 µg/mL (≈ 5.21 µM)
MIC [36]: 8 µg/mL (≈ 10.4 µM)
MIC [37]: 8 µg/mL (≈ 10.4 µM)
S. pyogenes (MIC) (S. pyogenes): 2 µg/mL

Source: patent US20240277890A1, “ANTIMICROBIAL ARTICLES COMPRISING POLYURETHANE” (Amicoat AS, priority 2021, published 2024)
